Measured values published in paper PMC7859335, “Discovery of Diaryl Ether Substituted Tetrahydrophthalazinones as TbrPDEB1 Inhibitors Following Structure-Based Virtual Screening” (Frontiers in Chemistry, 2021).
Read-outs that look alike come from different tables or passages of the source.

Columns and labels:
[1] = test system: TbrPDEB2; design: method as in earlier work; conditions: ref De Koning et al., 2012, Orrling et al., Veerman et al., 2016; cited from earlier work
[2] = biological target: T1, TbrPDEB1 (Trypanosoma brucei, UniProt Q8WQX9); assay: TbrPDEB1 catalytic domain phosphodiesterase activity assay (PDELight HTS cAMP kit); assay type: biochemical; conditions: for Ki: full dose-response, mean ± S.E.M.; for inhibition at 10 µM: read-out: TbrPDEB1 (% inh.)
T1 construct: The TbrPDEB1 catalytic domain phosphodiesterase activity assays were conducted based on a method reported by Sijm et al
T1 sequence (Q8WQX9 565-918 limits assumed): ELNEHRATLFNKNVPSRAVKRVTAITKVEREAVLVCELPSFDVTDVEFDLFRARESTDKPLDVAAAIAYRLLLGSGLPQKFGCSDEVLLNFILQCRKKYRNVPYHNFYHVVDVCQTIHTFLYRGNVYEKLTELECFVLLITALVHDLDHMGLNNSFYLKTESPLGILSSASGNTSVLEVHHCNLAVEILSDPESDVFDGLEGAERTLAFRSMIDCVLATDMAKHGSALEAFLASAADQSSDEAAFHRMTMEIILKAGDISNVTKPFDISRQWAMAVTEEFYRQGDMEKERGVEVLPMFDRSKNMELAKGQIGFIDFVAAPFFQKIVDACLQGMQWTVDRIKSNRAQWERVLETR
Experimental: The TbrPDEB1 catalytic domain phosphodiesterase activity assays were conducted based on a method reported by Sijm et al. ([2019]) with minor adaptations (Sijm et al., [2019]). The PDELight™ HTS cAMP phosphodiesterase Kit (Lonza, Walkersville, USA) was performed at 25°C in non-binding, low volume 384-well plates (Corning, Kennebunk, ME, USA). […] Single concentration measurements were made at 10 μM inhibitor concentration (triplo measurements/assay, n = 2). Dose-response curves were made in the range 100 μM−10 pM (triplo measurements/assay, n = 3). Compounds were diluted in DMSO (final in-test concentration 1%). Inhibitor dilutions (2.5 μL) were transferred to the 384-well plates, 2.5 μL of PDE in stimulation buffer was added and mixed, 5 μL of cAMP (at 2 × Km up to 20 μM) added and the assay mixture was incubated for 20 min at 300 rpm. […] Then, 5 μL of Lonza Detection reagent (diluted to 80% with reaction buffer) was added and the reaction incubated for 10 min at 300 rpm. Luminescence was read with a Victor3 luminometer using a 0.1 s/well program.
The Ki values of the inhibitors analyzed are represented as the mean of at least three independent experiments with the associated standard error of the mean (S.E.M.).

[3] = test system: T.b. brucei Squib-427 strain; assay: Antitrypanosomal phenotypic cellular assay (resazurin); assay type: cell-based; conditions: Trypanosoma brucei; in vitro, 72 h, mean ± S.E.M.
Experimental: (§1) The phenotypic cellular assays were conducted as previously reported by Blaazer et al. (Blaazer et al., [2018]).
For the antitrypanosomal assay, T.b. brucei Squib-427 strain (suramin-sensitive) was cultured at 37°C and 5% CO2 in HMI-9 medium supplemented with 10% fetal calf serum (FCS). Approximately 1.5 × 10^4 trypomastigotes were added to each well and parasite growth was assessed after 72 h at 37°C by adding resazurin. Viability was assessed fluorimetrically 24 h after addition of resazurin. Fluorescence was measured (excitation 550 nm, emission 590 nm) and the results were expressed as percentage reduction in viability compared to control.

[4] = Cellular cytotoxicity assay (resazurin); assay type: cell-based; conditions: human
Experimental: as §1
For the cellular cytotoxicity assay, MRC-5 SV2 cells, originally from a human diploid lung cell line, were cultivated in MEM supplemented with L-glutamine (20 mM), 16.5 mM sodium hydrogen carbonate and 5% FCS. For the assay, 10^4 MRC-5 cells/well were seeded onto the test plates containing the pre-diluted sample and incubated at 37°C and 5% CO2 for 72 h. Cell viability was assessed fluorimetrically 4 h after the addition of resazurin. Fluorescence was measured (excitation 550 nm, emission 590 nm) and the results were expressed as percentage reduction in cell viability compared to controls.

[5] = test system: T.b. brucei Squib-427 strain; design: method as in Blaazer et al. (2018); conditions: in vitro; ref Blaazer et al. (2018); cited from earlier work
[6] = test system: MRC-5 SV2 cells; design: method as in Blaazer et al. (2018); conditions: ref Blaazer et al. (2018); cited from earlier work
[7] = test system: hPDE4B1; design: method as in Blaazer et al. (2018); conditions: ref Blaazer et al. (2018), cited from earlier work
[8] = biological target: T1, TbrPDEB1; conditions: ref Blaazer et al. (2018); cited from earlier work
[9] = single point assay at 10 μM inhibitor

Compound	Ki [2]	inhibition at 10 µM [2, 9]	IC50 [3]	CC50 at 72 h [4]	also measured
COc1ccc(C2=NN(C3CCCCCC3)C(=O)[C@@H]3CC=CC[C@H]23)cc1OCCCCOc1ccc(-c2nn[nH]n2)cc1 [NPD-001]	–	–	–	–	IC50 [1]: 0.0124 µM
COc1ccc(C2=NN(C(C)C)C(=O)[C@@H]3CC=CC[C@H]23)cc1Oc1cccc(C(=O)NCc2ccco2)n1 (relative stereo) [3w, N-(Furan-2-ylmethyl)-6-(5-(cis-3-isopropyl-4-oxo-3,4,4a,5,8,8a-hexahydrophthalazin-1-yl)-2-methoxyphenoxy)picolinamide]	1 ± 0.2 µM	> 50%	25 ± 20 µM	> 64 µM	–
CCCCNC(=O)c1cccc(Oc2cc(C3=NN(C(C)C)C(=O)[C@@H]4CC=CC[C@H]34)ccc2OC)n1 (relative stereo) [3s, N-Butyl-6-(5-(cis-3-isopropyl-4-oxo-3,4,4a,5,8,8a-hexahydrophthalazin-1-yl)-2-methoxyphenoxy)picolinamide]	1.3 ± 0.3 µM	> 50%	> 64 µM	> 64 µM	–
Cc1ccc(C(=O)Nc2ccc(S(=O)(=O)O)c3cc(S(=O)(=O)O)cc(S(=O)(=O)O)c23)cc1NC(=O)c1cccc(NC(=O)Nc2cccc(C(=O)Nc3cc(C(=O)Nc4ccc(S(=O)(=O)O)c5cc(S(=O)(=O)O)cc(S(=O)(=O)O)c45)ccc3C)c2)c1 [suramin, reference compound]	–	–	0.04 ± 0.02 µM	–	–
COC(=O)c1cnc(Oc2cc(C3=NN(C(C)C)C(=O)[C@@H]4CC=CC[C@H]34)ccc2OC)cn1 (relative stereo) [2d, Methyl 5-(5-(cis-3-isopropyl-4-oxo-3,4,4a,5,8,8a-hexahydrophthalazin-1-yl)-2-methoxyphenoxy)pyrazine-2-carboxylate]	0.6 ± 0.2 µM	~50%	16 ± 10 µM	> 64 µM	–
COc1ccc(C2=NN(C(C)C)C(=O)C3CC=CCC23)cc1-c1ccc(C(=O)NCC(N)=O)cc1 (stereo not shown) [compound 1]	–	–	–	–	IC50 [5]: 6.3 µM; CC50 [6]: 35 µM; selectivity for TbrPDEB1 over hPDE4 ([7]; from Ki values): more than 10 fold; Ki ([7]; hPDE4B1 in Figure 1, read-out: hPDE4 Ki): 1.9 µM; Ki [8]: 0.1 µM
COc1ccc(C2=NN(C(C)C)C(=O)[C@H]3CC=CC[C@@H]23)cc1Oc1ccc(Cn2ccnc2)cn1 (relative stereo) [2h, cis-4-(3-((5-((1H-Imidazol-1-yl)methyl)pyridin-2-yl)oxy)-4-methoxyphenyl)-2-isopropyl-4a,5,8,8a-tetrahydrophthalazin-1(2H)-one]	1.3 ± 0.2 µM	~50%	7.9 ± 8 µM	31 ± 8 µM	–
COc1ccc(C2=NN(C(C)C)C(=O)[C@@H]3CC=CC[C@H]23)cc1Oc1cccc(C(N)=O)n1 (relative stereo) [3l, 6-(5-(cis-3-Isopropyl-4-oxo-3,4,4a,5,8,8a-hexahydrophthalazin-1-yl)-2-methoxyphenoxy)picolinamide]	0.8 ± 0.2 µM	≥ 50%	16 ± 10 µM	> 64 µM	–
COC(=O)c1ccc(Oc2cc(C3=NN(C(C)C)C(=O)[C@@H]4CC=CC[C@H]34)ccc2OC)nc1 (relative stereo) [3c, Methyl 6-(5-(cis-3-isopropyl-4-oxo-3,4,4a,5,8,8a-hexahydrophthalazin-1-yl)-2-methoxyphenoxy)nicotinate]	0.8 ± 0.2 µM	≥ 50%	7.9 ± 8 µM	> 64 µM	–
COc1ccc(C2=NN(C(C)C)C(=O)[C@@H]3CC=CC[C@H]23)cc1Oc1cc(C(=O)NCc2ccco2)ccn1 (relative stereo) [3u, N-(Furan-2-ylmethyl)-2-(5-(cis-3-isopropyl-4-oxo-3,4,4a,5,8,8a-hexahydrophthalazin-1-yl)-2-methoxyphenoxy)isonicotinamide]	–	–	–	–	TbrPDEB1 (% inh.) [2, 9]: No inhibition
COc1ccc(C2=NN(C(C)C)C(=O)[C@@H]3CC=CC[C@H]23)cc1Oc1ccc(C(=O)O)cn1 (relative stereo) [3g, 6-(5-(cis-3-Isopropyl-4-oxo-3,4,4a,5,8,8a-hexahydrophthalazin-1-yl)-2-methoxyphenoxy)nicotinic acid]	–	11 ± 6%	–	–	–
COc1ccc(C2=NN(C(C)C)C(=O)[C@H]3CC=CC[C@@H]23)cc1Oc1nccs1 (relative stereo) [2a, cis-2-Isopropyl-4-(4-methoxy-3-(thiazol-2-yloxy)phenyl)-4a,5,8,8a-tetrahydrophthalazin-1(2H)-one]	–	12 ± 3%	–	–	–
